Results on 14 molecules are retold here after US5187082A, “Process for producing A83850 antibiotics” (Eli Lilly and Company, priority 1990, dated 1993).

≈ marks a conversion by molar mass, not a printed value. Positions of bridges follow the written chain, without caps; N, C: chain ends. Non-standard residues stand in square brackets, D forms with d. Residues, ends and D or L forms follow the SMILES beside them. *: point of attachment. Ileψ(thiazoline)Cys = CC[C@H](C)[C@H](N)C1=N[C@H](C(=O)*)CS1; dOrn = NCCC[C@@H](N)C(=O)O

The test system of experiment [1] is Culture A83850 (Amycolatopsis albus NRRL 18532). In words: Resistance of culture A83850 to antibiotics, sensitivity discs on seeded ISP No. 2 agar plates. Format: cell-based. As to conditions: disc content printed per antibiotic. As for the experimental part:
Resistance to antibiotics was measured by padding antibiotic sensitivity discs onto the surface of seeded ISP No. 2 agar plates.

Experiment [2] has as its system Fusobacterium symbiosum. As to conditions: anaerobe, agar dilution, read after 24-hour incubation. (Agar dilution tests growth on a series of plates holding different concentrations.)
Experiment [3] has as its system Bacteriodes vulgatis. Briefly: Activity against anaerobic bacteria, agar-dilution MIC. As to conditions: Bacteriodes vulgatis; anaerobe, agar dilution, read after 24-hour incubation.
Experiment [4] has as its system Peptococcus asaccharolyticus. The experiment is described as above. As to conditions: Peptococcus asaccharolyticus; anaerobe, agar dilution, read after 24-hour incubation.
In experiment [5] the test system is Clostridium septicum. As to conditions: anaerobe, agar dilution, read after 24-hour incubation.
The test system of experiment [6] is Propionibacterium acnes. In words: Activity against anaerobic bacteria, agar-dilution MIC. The conditions noted are these: Propionibacterium acnes; anaerobe, agar dilution, read after 24-hour incubation. Format: cell-based.
Experiment [7] relates to Eubacterium aerofaciens. The conditions noted are these: anaerobe, agar dilution, read after 24-hour incubation.
Experiment [8] has as its system Bacteriodes thetaiotaomicron. In words: Activity against anaerobic bacteria, agar-dilution MIC. The conditions noted are these: Bacteriodes thetaiotaomicron; anaerobe, agar dilution, read after 24-hour incubation.
Experiment [9] concerns Peptococcus prevoti. The description is as above. As to conditions: Peptococcus prevoti; anaerobe, agar dilution, read after 24-hour incubation.
In experiment [10] the test system is Bacteriodes melaninogenicus. The experiment is described as above. It is filed as cell-based. As to conditions: Bacteriodes melaninogenicus; anaerobe, agar dilution, read after 24-hour incubation.
The subject of experiment [11] is Bacteroides corrodens. The experiment is described as above. It is filed as cell-based. The conditions noted are these: Bacteroides corrodens; anaerobe, agar dilution, read after 24-hour incubation.
The subject of experiment [12] is Clostridium perfringens. The conditions noted are these: anaerobe, agar dilution, read after 24-hour incubation.
Experiment [13] concerns Streptococcus pneumoniae Park 1. Briefly: microbe, parasite or virus in culture. Format: cell-based. The conditions noted are these: Streptococcus pneumoniae Park 1; agar dilution. As to the method:
(§1) The MIC's in Table VII were determined by standard agar-dilution assays.

For experiment [14], the system named is Fusobacterium necrophorum. The conditions noted are these: anaerobe, agar dilution, read after 24-hour incubation.
The subject of experiment [15] is Peptostreptococcus intermedius. In words: Activity against anaerobic bacteria, agar-dilution MIC. Format: cell-based. The conditions noted are these: Peptostreptococcus intermedius; anaerobe, agar dilution, read after 24-hour incubation.
The subject of experiment [16] is Bacteriodes fragilis. Described as above. It is filed as cell-based. As to conditions: Bacteriodes fragilis; anaerobe, agar dilution, read after 24-hour incubation.
Experiment [17] concerns Staphylococcus aureus. Briefly: In vivo activity against experimentally-induced infection in mice. As to conditions: doses administered subcutaneously to mice 1 and 4 hours postinfection. As to the method: (§2) The A83850 antibiotics have also shown in vivo antimicrobial activity against experimentally-induced infections in laboratory animals. When two doses of test compound were administered to mice experimentally infected with the test organism, the activity observed was measured as an ED50 value [effective dose in mg/kg to protect 50% of the test animals: see Warren Wick, et al., J. Bacteriol. 81, 233-235 (1961)].
(§3) ^a mg/kg × 2; doses administered subcutaneously to mice 1 and 4

Experiment [18] relates to Streptococcus pneumoniae. Described as above. The conditions noted are these: doses administered subcutaneously to mice 1 and 4 hours postinfection. As to the method: as §2, §3
In experiment [19] the test system is Streptococcus pyogenes. The experiment is described as above. As to conditions: doses administered subcutaneously to mice 1 and 4 hours postinfection. As for the experimental part: as §2, §3
Experiment [20] deals with Clostridium difficile. Briefly: Activity against anaerobic bacteria, agar-dilution MIC. As to conditions: Clostridium difficile; anaerobe, agar dilution, read after 24-hour incubation.
For experiment [21], the system named is Peptostreptococcus anaerobius. Described as above. The conditions noted are these: anaerobe, agar dilution, read after 24-hour incubation. It is filed as cell-based.
For experiment [22], the system named is Enterococcus faecium X66. Format: cell-based. As to conditions: Enterococcus faecium X66; agar dilution. As to the method: as §1
The subject of experiment [23] is Staphylococcus aureus X400. Format: cell-based. As to conditions: Staphylococcus aureus X400; agar dilution. As for the experimental part:
as §1

The subject of experiment [24] is Enterococcus faecalis 2041. It is filed as cell-based. As to conditions: Enterococcus faecalis 2041; agar dilution. As to the method: as §1
Experiment [25] concerns Staphylococcus epidermidis 222. It is filed as cell-based. As to conditions: Staphylococcus epidermidis 222; agar dilution. As for the experimental part:
as §1

Experiment [26] deals with Staphylococcus aureus X1.1. Format: cell-based. The conditions noted are these: Staphylococcus aureus X1.1; agar dilution. As for the experimental part: as §1
Experiment [27] concerns Staphylococcus aureus V41. It is filed as cell-based. The conditions noted are these: Staphylococcus aureus V41; agar dilution. As for the experimental part:
as §1

Experiment [28] deals with Streptococcus pyogenes C203. It is filed as cell-based. As to conditions: Streptococcus pyogenes C203; agar dilution. As to the method:
as §1

In experiment [29] the test system is Staphylococcus epidermidis 270. Format: cell-based. As to conditions: Staphylococcus epidermidis 270; agar dilution. As for the experimental part:
as §1

Consider `CN(C)[C@@H]1C(O)=C(C(N)=O)C(=O)[C@@]2(O)C(O)=C3C(=O)c4c(O)cccc4[C@@](C)(O)[C@H]3C[C@@H]12` [tetracycline], for which the “Resistance or inhibition of culture A83850 by antibiotic disc” value (from here on “Resistance or inhibition”) in experiment [1] is on record as “resistant”.

Regarding `CN[C@H](CC(C)C)C(=O)N[C@H]1C(=O)N[C@@H](CC(N)=O)C(=O)N[C@H]2C(=O)N[C@H]3C(=O)N[C@H](C(=O)N[C@H](C(=O)O)c4cc(O)cc(O)c4-c4cc3ccc4O)[C@H](O)c3ccc(c(Cl)c3)Oc3cc2cc(c3O[C@@H]2O[C@H](CO)[C@@H](O)[C@H](O)[C@H]2O[C@H]2C[C@](C)(N)C(=O)[C@H](C)O2)Oc2ccc(cc2Cl)[C@H]1O` [A83850B], the MIC in experiment [2] came to 2 µg/mL (≈ 1.38 µM); in [3] it was 16 µg/mL (≈ 11.1 µM); in experiment [4], 2 µg/mL (≈ 1.38 µM); in experiment [5], 1.0 µg/mL (≈ 0.691 µM); in experiment [6], 8.0 µg/mL (≈ 5.53 µM); in [7] it was 2 µg/mL (≈ 1.38 µM). In addition, the MIC stood at 64 µg/mL (≈ 44.2 µM) in experiment [8]; 2 µg/mL (≈ 1.38 µM) in experiment [9]; 32 µg/mL (≈ 22.1 µM) in experiment [10]; 32 µg/mL (≈ 22.1 µM) in experiment [11]; 2 µg/mL (≈ 1.38 µM) in experiment [12]; 0.125 µg/mL (≈ 0.0864 µM) in experiment [13]. Also, the MIC was 1.0 µg/mL (≈ 0.691 µM) in experiment [14]; 2.0 µg/mL (≈ 1.38 µM) in [15]; 16.0 to 32.0 µg/mL in [16]; 2 µg/mL (≈ 1.38 µM) in experiment [20]; 16 µg/mL (≈ 11.1 µM) in experiment [21]; 1.0 µg/mL (≈ 0.691 µM) in [22]. For the same molecule, the MIC in [23] was 1.0 µg/mL (≈ 0.691 µM); in [24], 4.0 µg/mL (≈ 2.76 µM); in experiment [25] it was 1.0 µg/mL (≈ 0.691 µM); in experiment [26], 0.5 µg/mL (≈ 0.345 µM); in experiment [27] it was 1.0 µg/mL (≈ 0.691 µM); in [28] it was 0.5 µg/mL (≈ 0.345 µM). Also, in [29], the MIC stood at 1.0 µg/mL (≈ 0.691 µM). Besides, the “ED50 Value” in [17] is on record as 2.87 mg/kg × 2; in [18], 0.98 mg/kg × 2; in experiment [19], 2.19 mg/kg × 2.

As for `NC[C@H]1O[C@H](O[C@H]2[C@H](O)[C@@H](O[C@H]3O[C@H](CO)[C@@H](O)[C@H](N)[C@H]3O)[C@H](N)C[C@@H]2N)[C@H](N)C[C@@H]1O` [tobramycin], the “Resistance or inhibition” value in experiment [1] is given as “inhibited”.

With `CC1(C)S[C@@H]2[C@H](NC(=O)Cc3ccccc3)C(=O)N2[C@H]1C(=O)O` [penicillin], the “Resistance or inhibition” value in experiment [1] is reported as “inhibited”.

As for `CC(C)C[C@H](C(=O)N[C@H]1C(=O)N[C@@H](CC(N)=O)C(=O)N[C@H]2C(=O)N[C@H]3C(=O)N[C@H](C(=O)N[C@H](C(=O)O)c4cc(O)cc(O)c4-c4cc3ccc4O)[C@H](O)c3ccc(c(Cl)c3)Oc3cc2cc(c3O[C@@H]2O[C@H](CO)[C@@H](O)[C@H](O)[C@H]2O[C@H]2C[C@](C)(N)[C@@H](O)[C@H](C)O2)Oc2ccc(cc2Cl)[C@H]1O)N(C)C` [Reduced A83850A], the MIC in experiment [13] turned out to be 0.25 µg/mL (≈ 0.171 µM); in experiment [22], 2.0 µg/mL (≈ 1.37 µM); in experiment [23] it was 2.0 µg/mL (≈ 1.37 µM); in experiment [24], 8.0 µg/mL (≈ 5.47 µM); in experiment [25] it was 4.0 µg/mL (≈ 2.73 µM); in experiment [26], 2.0 µg/mL (≈ 1.37 µM). Further, the MIC in [27] was 2.0 µg/mL (≈ 1.37 µM); in experiment [28], 2.0 µg/mL (≈ 1.37 µM); in [29], 4.0 µg/mL (≈ 2.73 µM). In addition, the “ED50 Value” is listed as 7.10 mg/kg × 2 in experiment [17], 3.88 mg/kg × 2 in experiment [18] and 2.30 mg/kg × 2 in experiment [19].

Take `[H]/N=C(/N)N[C@H]1[C@H](O)[C@@H](O)[C@H](O[C@@H]2O[C@@H](C)[C@](O)(C=O)[C@H]2O[C@@H]2O[C@@H](CO)[C@H](O)[C@@H](O)[C@@H]2NC)[C@@H](N/C(N)=N\[H])[C@@H]1O` [streptomycin]: the “Resistance or inhibition” value in [1] was “inhibited”.

Regarding `CC[C@H](C)[C@H](N)C1=N[C@H](C(=O)N[C@@H](CC(C)C)C(=O)N[C@H](CCC(=O)O)C(=O)N[C@H](C(=O)N[C@H]2CCCCNC(=O)[C@H](CC(N)=O)NC(=O)[C@@H](CC(=O)O)NC(=O)[C@H](Cc3cnc[nH]3)NC(=O)[C@@H](Cc3ccccc3)NC(=O)[C@H]([C@@H](C)CC)NC(=O)[C@@H](CCCN)NC2=O)[C@@H](C)CC)CS1` [bacitracin] ({Ileψ(thiazoline)Cys}-L[dE]IK[dOrn]I[dF]H[dD]N; lactam 4-C), in experiment [1], the “Resistance or inhibition” value is reported as “resistant”.

gentamicin: the “Resistance or inhibition” value in experiment [1] is given as “inhibited”.

With `CCC[C@@H]1C[C@@H](C(=O)N[C@@H]([C@H]2O[C@H](SC)[C@H](O)[C@@H](O)[C@H]2O)[C@@H](C)O)N(C)C1` [lincomycin], in experiment [1], the “Resistance or inhibition” value is recorded as “inhibited”.

Take `CO[C@H]1C[C@H](O[C@H]2[C@H](C)[C@@H](O[C@@H]3O[C@H](C)C[C@H](N(C)C)[C@H]3O)[C@@H](C)C[C@@]3(CO3)C(=O)[C@H](C)[C@@H](O)[C@@H](C)[C@@H](C)OC(=O)[C@@H]2C)O[C@@H](C)[C@@H]1O` [oleandomycin]: the “Resistance or inhibition” value in experiment [1] is on record as “resistant”.

As for `CN[C@H](CC(C)C)C(=O)N[C@H]1C(=O)N[C@@H](CC(N)=O)C(=O)N[C@H]2C(=O)N[C@H]3C(=O)N[C@H](C(=O)N[C@H](C(=O)O)c4cc(O)cc(O)c4-c4cc3ccc4O)[C@H](O)c3ccc(c(Cl)c3)Oc3cc2cc(c3O[C@@H]2O[C@H](CO)[C@@H](O)[C@H](O)[C@H]2O[C@H]2C[C@](C)(N)[C@@H](O)[C@H](C)O2)Oc2ccc(cc2Cl)[C@H]1O` [Reduced A83850B], the MIC in experiment [13] amounted to 0.125 µg/mL (≈ 0.0863 µM); in experiment [22] it was 1.0 µg/mL (≈ 0.69 µM); in experiment [23], 1.0 µg/mL (≈ 0.69 µM); in [24] it was 4.0 µg/mL (≈ 2.76 µM); in experiment [25], 2.0 µg/mL (≈ 1.38 µM); in experiment [26] it was 1.0 µg/mL (≈ 0.69 µM). Also, the MIC in experiment [27] turned out to be 1.0 µg/mL (≈ 0.69 µM); in experiment [28], 0.5 µg/mL (≈ 0.345 µM); in experiment [29], 2.0 µg/mL (≈ 1.38 µM). In addition, the figures for the “ED50 Value” in experiment [17], in experiment [18] and in experiment [19] were 2.12 mg/kg × 2, 1.99 mg/kg × 2 and 1.36 mg/kg × 2, respectively.

On to neomycin, for which the “Resistance or inhibition” value in [1] is “resistant”.

Take `CC(=O)OCC1=C(C(=O)O)N2C(=O)[C@@H](NC(=O)Cc3cccs3)[C@H]2SC1` [cephalothin]: the “Resistance or inhibition” value in experiment [1] was “inhibited”.

`CO[C@H]1/C=C/O[C@@]2(C)Oc3c(C)c(O)c4c(O)c(c(/C=N/N5CCN(C)CC5)c(O)c4c3C2=O)NC(=O)/C(C)=C\C=C\[C@H](C)[C@H](O)[C@@H](C)[C@@H](O)[C@@H](C)[C@H](OC(C)=O)[C@@H]1C` [rifampin]: the “Resistance or inhibition” value in experiment [1] was “resistant”.
